Source: paper PMC7619385 (ACS infectious diseases, 2025)

Tests used:
NLuc::LmxCLK1 [1] = target: T1, NLuc::LmxCLK1 (Leishmania mexicana, UniProt E9AMP2); assay: In-cell BRET target engagement in intracellular amastigotes expressing NLuc::LmxCLK1; type: cell-based
Method: L. mexicana (strain MNYC/BZ/62/M379) promastigotes were cultivated in medium 199 (M199) (Earle’s Salts - Gibco) supplemented with 10% (v/v) heat-inactivated fetal calf serum (HIFCS – Cultilab) and 1% Penicillin/Streptomycin solution (Sigma-Aldrich) at 26 °C. Phenotypic drug response assays in null mutant and point-mutation mutant lines were performed in HOMEM supplemented with 10% (v/v) heat-inactivated fetal calf serum (HIFCS – Gibco). THP-1 monocytes were differentiated in adherent macrophages with 50 ng of PMA for 72 h at 37 °C and 5% CO2 before infection with stationary phase promastigotes (ratio 10 promastigotes:1 macrophage) for 6 h, followed by washing to remove non-internalized Leishmania. Infected macrophages were incubated at 34 °C and 5% CO2 for 48 h in RPMI (Gibco) supplemented with 10% HIFCS and 1% Penicillin/Streptomycin solution.
(§1) in vitro BRET used purified NLuc-LmxCLK1 in Kinase Buffer (50 mM HEPES, 1 mM EGTA, 10 mM MgCl^2, 2 mM DTT and 0.01% Tween-20) aliquoted into 96-well plates (Greiner #655904). In cell BRET assays used engineered L. mexicana (promastigotes or intramacrophage amastigotes) expressing NLuc-LmxCLK1 in cell media aliquoted into 96-well plates (Greiner, #655083). For tracer titration experiments, BRET probes were serially diluted from 100% DMSO stocks – first in 100% DMSO to 100x final assay concentration, and then in Tracer Dilution Buffer (TDB - 12.5 mM HEPES, pH 7.5; 31.25% PEG 400) to 20x the final assay concentration. Serially diluted probes (5 µL) were added to 85 µL of cells in culture media or 85 µL of purified protein. Final well volumes were adjusted to 100 µL with sterile Opti-MEM™ I Reduced Serum Medium (Thermo-Scientific) – for wells containing cells; or Kinase Buffer - for wells containing purified protein. For tracer displacement assays, samples were prepared as above, but final volume was brought to 100 µL by addition of vehicle or serially-diluted test compounds. Final DMSO concentration in these assays was 1%. Plates were incubated for 30 min at 25 °C (purified protein and promastigotes) or 34 °C (intramacrophage amastigotes), and 50 µL of Promega cocktail containing furimazine and NLuc extracellular inhibitor (catalog #N2161) were added to each well. Light emissions at 460+10 nm (BRET donor) and at 610+20 nm (BRET acceptor) were sequentially recorded (integration time = 0.5 s, gain = 3600) using a luminometer (BMG LABTECH Clariostar or Biotek Synergy HT). BRET values are reported in milli-BRET (mBRET) units (mBU), obtained by dividing the acceptor luminescence by the donor luminescence and multiplying the result by a factor of 1,000. BRET values were converted to blank-corrected probe occupancies (%) according to equation [1]: (1) Probeoccupancy(%)=X−Z/Y−Z×100 where X = mBRET value in the presence of the test compound and the probe, Y = mBRET value in the presence of probe only, and Z = mBRET value in the absence of probe and test compound.

NLuc::LmxCLK1 [2] = target: T1, NLuc::LmxCLK1; assay: In vitro BRET with purified NLuc::LmxCLK1; type: binding
Method: as §1
To determine apparent dissociation constants from saturation binding curves, mBRET values were plotted as a function of probe concentration, and probe affinity values (KD) were determined using the hyperbolic dose-response equation for binding to a single site available in GraphPad Prism (v. 9.1.0).

NLuc::LmxCLK1 [3] = target: T1, NLuc::LmxCLK1; assay: cell-based; type: cell-based
In short: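 NanoBRET tracer displacement in live cells expressing NLuc-tagged CLK1, test compounds at 10 µM fixed, 1% DMSO final. Acceptor/donor emission (610/460 nm) ratio gives mBRET, converted to blank-corrected probe occupancy (%); probe KD from single-site saturation binding fits.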

T1 sequence (E9AMP2 entry or part of it): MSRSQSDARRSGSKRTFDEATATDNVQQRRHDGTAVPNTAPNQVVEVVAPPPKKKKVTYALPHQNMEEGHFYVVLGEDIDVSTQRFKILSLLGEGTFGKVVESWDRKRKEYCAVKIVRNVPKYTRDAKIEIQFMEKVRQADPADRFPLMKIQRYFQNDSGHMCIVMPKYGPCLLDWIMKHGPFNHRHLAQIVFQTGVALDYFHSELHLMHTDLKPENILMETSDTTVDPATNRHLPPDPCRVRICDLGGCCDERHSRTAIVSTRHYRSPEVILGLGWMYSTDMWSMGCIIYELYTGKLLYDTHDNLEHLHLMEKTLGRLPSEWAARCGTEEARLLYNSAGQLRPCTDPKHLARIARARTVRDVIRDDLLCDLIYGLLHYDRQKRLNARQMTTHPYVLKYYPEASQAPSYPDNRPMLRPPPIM

Cc1ccc(C(=O)Nc2ccc(CN3CCN(CCCNC(=O)c4ccc(C(=O)O)c(-c5c6ccc(=O)cc-6oc6cc(O)ccc56)c4)CC3)c(C(F)(F)F)c2)cc1C#Cc1cnc2[nH]ncc2c1 [SV366]
EC80 (NLuc::LmxCLK1 [1]; 0.5 h, read-out: EC80 tracer titration in intracellular amastigotes): 0.2 µM | EC50 (NLuc::LmxCLK1 [1]; read-out: EC50 tracer titration in intracellular amastigotes, infected macrophages): 0.0726 µM | Lower EC50 in intracellular amastigotes compared to promastigotes (NLuc::LmxCLK1 [1]; tracer titration): approximately 5 fold | EC80 (NLuc::LmxCLK1 [2]; 0.5 h, read-out: EC80 tracer titration, purified NLuc-LmxCLK1): 0.0594 µM | EC50 (NLuc::LmxCLK1 [2]; read-out: EC50 tracer titration, purified NLuc::LmxCLK1, BRET probe binding): 0.0084 µM | Kd (NLuc::LmxCLK1 [2]; saturation binding to purified NLuc::LmxCLK1): 0.0059 µM | EC80 (NLuc::LmxCLK1 [3]; 0.5 h, read-out: EC80 tracer titration in promastigotes): 1.05 µM | EC50 (NLuc::LmxCLK1 [3]; read-out: EC50 tracer titration in promastigotes, live promastigotes): 0.383 µM
